Measured values published in patent US20230265483A1, “METHODS FOR TESTING ANDEXANET POTENCY” (Alexion Pharmaceuticals, Inc., priority 2020, published 2023).

Tests used:
[1] = biological target: T1, BFXa (Bos taurus, UniProt P00743); assay: Direct potency assay with BFXa/betrixaban mixture; type: biochemical, bovine; details: BFXa (1×)/betrixaban (1×) vs HFXa (1×)/betrixaban (1×), no andexanet
T1 construct: purchased Hyphen BioMed (France) BE1010/BE101K
Description: The stock solutions for HFXa, BFXa and betrixaban were first prepared separately. FXa/betrixaban mixture was prepared by mixing different volumes of the stock solutions of FXa and betrixban, resulting in HFXa/betrixaban or BFXa/betrixaban. The FXa/betrixaban mixture (50 μL) was added to the reaction mixture as described in the direct potency assay. The HFXa (1×)/betrixaban (1×) mixture (O) was used as a control.
Preparation of fXa and Betrixaban (fXa Inhibitor) • a) Dilute the fXa to 50 μg/mL then further dilute to 1.0 μg/mL in assay buffer. • b) Dilute fXa inhibitor (226 μg/mL betrixaban stock) to 40 ng/mL in assay buffer as described in the table below. • c) Add equal volumes of diluted fXa and fXa inhibitor (betrixaban) into an appropriate container by combining 6 mL of FXa at 1.0 μg/mL and 6 mL of fXa inhibitor at 40 ng/mL. Mix well. • 4. Preparation of fXa and fXa Inhibitor Controls • a) Prepare the fXa control by mixing 100 μL of diluted fXa with 300 μL of assay buffer. • b) Prepare fXa inhibitor (betrixaban) control by mixing 200 μL of the fXa inhibitor mixture and 200 μL assay buffer. • 5. Transfer 50 μL/well of reference standard (RS), assay control (CTRL) and test samples (TS) to the assay plate. • 6. […] Read the microplate at 405 nm as the test wavelength and 490 nm as the reference wavelength. • 14. […]

[2] = biological target: T2, bovine fXa (BFXa) (Bos taurus, UniProt P00743); assay: Inhibition of bovine fXa by betrixaban; type: biochemical; details: in words
T2 construct: purchased Hyphen BioMed (France) BE1010/BE101K
T2 sequence (P00743 234-492 limits assumed): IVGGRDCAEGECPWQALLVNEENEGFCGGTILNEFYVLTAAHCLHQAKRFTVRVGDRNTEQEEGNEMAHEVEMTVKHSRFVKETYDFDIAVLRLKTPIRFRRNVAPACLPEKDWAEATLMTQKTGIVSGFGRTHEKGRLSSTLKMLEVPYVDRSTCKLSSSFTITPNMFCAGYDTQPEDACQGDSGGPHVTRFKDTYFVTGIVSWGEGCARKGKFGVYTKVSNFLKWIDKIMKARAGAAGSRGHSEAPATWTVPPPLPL
T2 sequence (P00743 41-180 partner limits assumed): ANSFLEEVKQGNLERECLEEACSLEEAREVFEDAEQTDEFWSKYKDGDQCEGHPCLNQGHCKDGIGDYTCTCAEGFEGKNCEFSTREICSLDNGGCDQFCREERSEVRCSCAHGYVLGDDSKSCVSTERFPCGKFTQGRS

T1 sequence (P00743 234-492 limits assumed): as the sequence (P00743 234-492 limits assumed) above
T1 sequence (P00743 41-180 partner limits assumed): as the sequence (P00743 41-180 partner limits assumed) above

inhibition of BFXa activity (background in absence of andexanet) [1]: less inhibition of BFXa activity | potency of inhibition of bovine fXa compared with human fXa [2]: less potent
SMILES: COc1ccc(NC(=O)c2ccc(C(=N)N(C)C)cc2)c(C(=O)Nc2ccc(Cl)cn2)c1 [betrixaban]
